From patent US7371758B2, “Antimalarial pyrimidine derivatives and methods of making and using them” (National Science & Technology Development Agency, priority 2003, dated 2008)

Key:
[1] = biological target: dihydrofolate reductase of Plasmodium falciparum, wild type (Plasmodium falciparum, UniProt A7UD81); assay: PfDHFR enzyme inhibition constants (Ki), wild type; assay type: biochemical; settings: 25° C., 340 nm
PfDHFR S108N = biological target: T1, PfDHFR S108N (Plasmodium falciparum, UniProt A7UD81, S108N); assay: PfDHFR enzyme inhibition constants (Ki), single mutant S108N; assay type: biochemical
T1 construct: made in house; host or cells: E. coli BL21 (DE3)pLysS

PfDHFR C59R + S108N = biological target: T2, PfDHFR C59R + S108N (Plasmodium falciparum, UniProt A7UD81, C59R/S108N); assay: PfDHFR enzyme inhibition constants (Ki), double mutant C59R + S108N; assay type: biochemical
T2 construct: made in house; host or cells: E. coli BL21 (DE3)pLysS

[2] = biological target: T3, PfDHFR N51I + C59R + S108N + I164L (Plasmodium falciparum, UniProt A7UD81, C59R/I164L/N51I/S108N); assay: PfDHFR enzyme inhibition constants (Ki), quadruple mutant N51I + C59R + S108N + I164L; assay type: biochemical
T3 construct: made in house; host or cells: E. coli BL21 (DE3)pLysS

[3] = system: Plasmodium falciparum TM4/8.2 (wild type); assay: In vitro antimalarial activity, [3H]-hypoxanthine incorporation, TM4/8.2; assay type: cell-based; settings: P. falciparum TM4/8.2, wild type
Protocol: P. falciparum strains were used in this study. P. falciparum strains were maintained continuously in human erythrocytes at 37° C. under 3% CO2 in RPMI 1640 culture media supplemented with 25 mM HEPES, pH 7.4, 0.2% NaHCO3, 40 μg/mL gentamicin and 10% human serum.
In vitro antimalarial activity was determined by using [^3H]-hypoxanthine incorporation method. The drugs were initially dissolved in DMSO and diluted with the culture media. Aliquots (25 μL) of the drug of different concentrations were dispensed in 96-well plates and 200 μL of 1.5% cell suspension of parasitized erythrocytes containing 1-2% parasitemia were added. […] The mixtures were incubated in a 3% CO2 incubator at 37° C. After 24 h of incubation, 25 μL (0.25 μCi) of [^3H]-hypoxanthine were added to each well. The parasite cultures were further incubated under the same condition for 18-24 h. DNA of parasites was harvested onto glass filter paper. The filters were air-dried and 20 μL liquid scintillation fluid was added. The radioactivity on the filters was then measured using a microplate scintillation counter. […] Examples of the invented compounds in this series with active antimalarial activity against wild type and in particular against parasites carrying single, double, triple, and quadruple mutant enzymes are as summarized in Table 2.

[4] = Cytotoxicity to mammalian cells, Vero; assay type: cell-based; settings: African green monkey, Vero cells (African green monkey kidney epithelial cells)
[5] = Cytotoxicity to mammalian cells, KB; assay type: cell-based; settings: human, KB cells (human epidermoid carcinoma)
Protocol: (§1) Cytotoxicity tests of the invented compounds against African green monkey kidney fibroblast (Vero cells), Human epidermoid carcinoma (KB) cells, Human breast cancer (BC) cells were performed according to the protocol described by Skehan et al (1990). These compounds have selectivity against malaria parasites with no or less effect on mammalian cell lines.

[6] = Cytotoxicity to mammalian cells, BC; assay type: cell-based; settings: human, BC cells (human breast cancer)
Protocol: as §1

Staphylococcus aureus = assay: Antibacterial activity, bacterial growth inhibition, S. aureus; assay type: cell-based; settings: 20 hours incubation, 600 nm
Protocol: (§2) The IC50-values was determined from the sigmoidal curve obtained by plotting the percentages of bacterial growth against drug concentrations. These compounds have selectivity against malaria parasites with no or less effect on bacteria. The antibacterial activities to S. aureus, and E. coli are as summerized in Table 4.

E. coli = assay: Antibacterial activity, bacterial growth inhibition, E. coli; assay type: cell-based; settings: Escherichia coli, 20 hours incubation, 600 nm
Protocol: as §2

[7] = biological target: PfDHFR N51I + C59R + S108N (Plasmodium falciparum, UniProt A7UD81, C59R/N51I/S108N); assay: biochemical
[8] = biological target: PfDHFR C59R + S108N + I164L (Plasmodium falciparum, UniProt A7UD81, C59R/I164L/S108N); assay: biochemical
PfDHFR C59R + S108N + I164L, sequence (A7UD81 whole entry C59R/S108N/I164L): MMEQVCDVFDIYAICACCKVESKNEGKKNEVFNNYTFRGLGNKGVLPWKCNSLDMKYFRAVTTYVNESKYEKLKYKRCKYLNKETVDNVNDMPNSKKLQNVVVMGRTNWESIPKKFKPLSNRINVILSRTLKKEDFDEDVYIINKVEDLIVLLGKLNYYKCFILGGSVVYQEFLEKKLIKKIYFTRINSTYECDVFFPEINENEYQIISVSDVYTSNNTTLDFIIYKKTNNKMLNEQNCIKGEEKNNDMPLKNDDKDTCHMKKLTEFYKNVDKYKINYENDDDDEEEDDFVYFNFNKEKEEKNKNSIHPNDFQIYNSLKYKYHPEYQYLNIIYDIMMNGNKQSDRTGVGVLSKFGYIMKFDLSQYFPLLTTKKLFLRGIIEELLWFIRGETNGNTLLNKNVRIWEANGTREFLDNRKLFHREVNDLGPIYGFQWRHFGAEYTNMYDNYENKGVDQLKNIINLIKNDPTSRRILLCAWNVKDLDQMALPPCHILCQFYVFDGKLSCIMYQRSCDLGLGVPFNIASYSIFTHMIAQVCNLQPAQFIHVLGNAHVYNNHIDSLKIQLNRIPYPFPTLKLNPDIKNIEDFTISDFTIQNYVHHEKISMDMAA

PfDHFR N51I + C59R + S108N, sequence (A7UD81 whole entry N51I/C59R/S108N): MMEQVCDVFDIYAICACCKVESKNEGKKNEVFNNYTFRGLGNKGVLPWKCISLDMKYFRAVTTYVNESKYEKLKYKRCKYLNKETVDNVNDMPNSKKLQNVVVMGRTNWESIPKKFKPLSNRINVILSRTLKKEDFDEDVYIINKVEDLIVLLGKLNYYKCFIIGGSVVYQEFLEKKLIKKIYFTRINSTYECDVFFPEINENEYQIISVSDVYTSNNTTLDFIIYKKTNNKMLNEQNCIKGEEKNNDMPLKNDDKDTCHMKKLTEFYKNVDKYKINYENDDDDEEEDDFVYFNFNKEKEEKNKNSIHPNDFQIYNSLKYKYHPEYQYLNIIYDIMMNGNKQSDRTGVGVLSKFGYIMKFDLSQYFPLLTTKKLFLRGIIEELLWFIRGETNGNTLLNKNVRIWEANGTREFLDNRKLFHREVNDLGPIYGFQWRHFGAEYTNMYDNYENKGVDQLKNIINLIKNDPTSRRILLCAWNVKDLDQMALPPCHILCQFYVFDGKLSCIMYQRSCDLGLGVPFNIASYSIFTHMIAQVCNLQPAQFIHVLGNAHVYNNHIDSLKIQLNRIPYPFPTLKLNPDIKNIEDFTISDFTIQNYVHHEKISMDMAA
T1 sequence (A7UD81 whole entry S108N): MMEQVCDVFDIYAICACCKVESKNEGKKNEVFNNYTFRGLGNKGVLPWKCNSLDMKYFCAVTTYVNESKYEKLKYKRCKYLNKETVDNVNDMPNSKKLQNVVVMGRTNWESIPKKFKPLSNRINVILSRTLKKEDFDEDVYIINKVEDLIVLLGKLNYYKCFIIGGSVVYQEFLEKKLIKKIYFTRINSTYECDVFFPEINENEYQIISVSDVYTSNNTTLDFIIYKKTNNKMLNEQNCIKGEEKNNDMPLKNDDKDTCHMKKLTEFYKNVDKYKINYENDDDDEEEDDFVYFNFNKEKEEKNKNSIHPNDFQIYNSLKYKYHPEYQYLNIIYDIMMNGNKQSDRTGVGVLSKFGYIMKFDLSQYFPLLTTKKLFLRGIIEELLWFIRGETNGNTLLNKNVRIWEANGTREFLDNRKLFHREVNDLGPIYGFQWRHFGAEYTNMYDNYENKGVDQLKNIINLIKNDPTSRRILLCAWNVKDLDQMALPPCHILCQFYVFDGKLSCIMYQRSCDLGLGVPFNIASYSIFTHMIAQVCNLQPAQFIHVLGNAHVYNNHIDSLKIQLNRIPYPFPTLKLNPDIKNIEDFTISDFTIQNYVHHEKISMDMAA
T2 sequence (A7UD81 whole entry C59R/S108N): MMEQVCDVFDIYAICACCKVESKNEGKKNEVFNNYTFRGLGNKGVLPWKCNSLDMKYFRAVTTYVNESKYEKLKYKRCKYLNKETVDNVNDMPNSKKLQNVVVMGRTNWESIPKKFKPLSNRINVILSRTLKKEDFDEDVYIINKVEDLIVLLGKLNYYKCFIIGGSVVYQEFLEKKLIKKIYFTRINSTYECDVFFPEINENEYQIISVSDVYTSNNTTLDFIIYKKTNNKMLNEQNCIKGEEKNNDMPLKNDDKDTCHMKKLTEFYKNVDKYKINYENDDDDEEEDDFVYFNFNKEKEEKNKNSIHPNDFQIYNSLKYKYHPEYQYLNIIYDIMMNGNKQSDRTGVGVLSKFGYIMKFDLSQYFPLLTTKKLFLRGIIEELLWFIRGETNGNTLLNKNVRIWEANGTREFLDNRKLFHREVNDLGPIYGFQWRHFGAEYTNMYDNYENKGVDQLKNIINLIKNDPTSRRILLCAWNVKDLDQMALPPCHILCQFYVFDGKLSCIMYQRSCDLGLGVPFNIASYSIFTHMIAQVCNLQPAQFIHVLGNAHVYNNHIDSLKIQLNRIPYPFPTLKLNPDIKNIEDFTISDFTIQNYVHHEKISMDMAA
T3 sequence (A7UD81 whole entry N51I/C59R/S108N/I164L): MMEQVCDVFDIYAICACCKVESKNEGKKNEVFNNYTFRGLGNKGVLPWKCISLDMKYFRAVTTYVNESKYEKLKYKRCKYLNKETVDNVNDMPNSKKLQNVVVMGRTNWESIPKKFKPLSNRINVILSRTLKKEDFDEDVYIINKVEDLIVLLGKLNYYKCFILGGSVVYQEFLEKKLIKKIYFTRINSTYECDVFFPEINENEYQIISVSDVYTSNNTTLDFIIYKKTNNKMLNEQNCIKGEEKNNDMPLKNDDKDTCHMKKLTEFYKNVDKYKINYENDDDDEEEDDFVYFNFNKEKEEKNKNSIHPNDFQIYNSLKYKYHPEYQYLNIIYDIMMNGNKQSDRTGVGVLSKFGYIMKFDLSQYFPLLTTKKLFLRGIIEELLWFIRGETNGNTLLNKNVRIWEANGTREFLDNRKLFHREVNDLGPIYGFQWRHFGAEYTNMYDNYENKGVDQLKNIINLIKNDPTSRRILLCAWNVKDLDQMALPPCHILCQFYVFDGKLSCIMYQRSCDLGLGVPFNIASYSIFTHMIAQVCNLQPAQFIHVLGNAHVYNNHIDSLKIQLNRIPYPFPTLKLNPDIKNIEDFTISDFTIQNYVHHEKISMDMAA
dihydrofolate reductase of Plasmodium falciparum, wild type, sequence (A7UD81 entry or part of it): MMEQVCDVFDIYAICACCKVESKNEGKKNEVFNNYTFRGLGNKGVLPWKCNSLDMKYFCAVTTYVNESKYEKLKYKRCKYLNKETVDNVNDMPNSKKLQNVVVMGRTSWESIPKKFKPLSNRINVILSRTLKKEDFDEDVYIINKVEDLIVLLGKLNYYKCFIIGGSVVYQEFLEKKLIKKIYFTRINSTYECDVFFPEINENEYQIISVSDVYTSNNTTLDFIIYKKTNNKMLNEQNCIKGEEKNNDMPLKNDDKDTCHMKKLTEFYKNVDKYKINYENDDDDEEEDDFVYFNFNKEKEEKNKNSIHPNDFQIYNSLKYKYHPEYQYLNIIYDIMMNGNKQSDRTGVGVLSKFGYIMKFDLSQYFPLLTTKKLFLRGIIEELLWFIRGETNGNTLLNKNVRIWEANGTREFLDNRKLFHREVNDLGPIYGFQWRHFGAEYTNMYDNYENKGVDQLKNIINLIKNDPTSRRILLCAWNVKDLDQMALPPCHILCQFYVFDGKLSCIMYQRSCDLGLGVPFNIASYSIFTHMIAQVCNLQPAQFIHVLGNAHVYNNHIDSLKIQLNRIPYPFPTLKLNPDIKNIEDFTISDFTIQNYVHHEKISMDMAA

| SMILES | Ki [1] [nM] | Ki (PfDHFR S108N) [nM] | Ki (PfDHFR C59R + S108N) [nM] | Ki [2] [nM] | IC50 [3] [nM] | IC50 [4] [nM] | IC50 [5] [nM] | IC50 [6] [nM] | IC50 (Staphylococcus aureus) [nM] | IC50 (E. coli) [nM] | Ki [7] [nM] | Ki [8] [nM] |
| --- | --- | --- | --- | --- | --- | --- | --- | --- | --- | --- | --- | --- |
| CCCCCCc1nc(N)nc(N)c1-c1ccccc1 [Example 1, 2,4-diamino-6-(n-hexyl)-5-phenylpyrimidine] | 0.3 ± 0.1 | 1.2 ± 0.3 | 0.7 ± 0.3 | 1.4 ± 0.5 | 60 ± 20 | 55000 | 113000 | 268000 | > 10000 | > 10000 | 0.4 ± 0.02 | 0.7 ± 0.2 |
| Nc1nc(N)c(-c2ccccc2)c(CCCc2ccccc2)n1 [Example 2, 2,4-diamino-5-phenyl-6-(3-phenylpropyl)pyrimidine] | 0.5 | 0.9 ± 0.2 | 2.4 ± 0.1 | 4.7 ± 0.9 | 210 ± 60 | > 50000 | 150000 | 250000 | > 50000 | > 50000 | 1.1 ± 0.1 | 1.9 ± 0.1 |
| COC(=O)CCCc1nc(N)nc(N)c1-c1ccccc1 [Example 3, 2,4-diamino-6-(3-methoxycarbonylpropyl)-5-phenylpyrimidine] | 0.6 | 1.8 ± 0.2 | 5.5 ± 0.5 | 24 ± 2 | 390 ± 60 | 20000 | 71000 | 500000 | > 50000 | > 50000 | 3.3 ± 0.6 | 15 ± 3 |
| Nc1nc(N)c(-c2cccc(Cl)c2)c(CCCc2ccccc2)n1 [Example 4, 2,4-diamino-5-(3-chlorophenyl)-6-(3-phenylpropyl)pyrimidine] | 1.2 ± 0.2 | 3 ± 0.6 | 4.2 ± 0.2 | 2 ± 0.8 | 670 ± 60 | 2100 | 1600 | 1600 | > 50000 | > 50000 | 2 ± 0.2 | 2.2 ± 0.3 |
| COc1ccc(CCCc2nc(N)nc(N)c2-c2cccc(Cl)c2)cc1 [Example 5, 2,4-diamino-5-(3-chlorophenyl)-6-[3-(4-methoxyphenyl)propyl]pyrimidine] | 2.2 ± 0.6 | 4 ± 0.2 | 6 ± 0.6 | 2 ± 0.4 | 410 ± 50 | 3000 | 15000 | 3000 | 38000 | > 50000 | 1.3 ± 0.1 | 2.9 ± 0.3 |
| COC(=O)CCCc1nc(N)nc(N)c1-c1cccc(Cl)c1 [Example 6, 2,4-diamino-5-(3-chlorophenyl)-6-(3-methoxycarbonylpropyl)pyrimidine] | 0.5 | 1.7 ± 0.1 | 2.8 ± 0.2 | 2.7 ± 1.2 | 790 ± 100 | 20000 | 9300 | 22800 | > 50000 | > 50000 | 0.8 ± 0.2 | 1.8 ± 0.4 |
| Nc1nc(N)c(-c2cccc(Cl)c2)c(CCOCCCOc2ccccc2)n1 [Example 7, 2,4-diamino-5-(3-chlorophenyl)-6-[2-(3-phenoxypropyloxy)ethyl]pyrimidine] | 0.4 ± 0.2 | 1.8 ± 0.3 | 1.9 ± 0.4 | 1.7 ± 0.2 | 350 ± 80 | 15000 | 6400 | 4900 | > 50000 | > 50000 | 0.7 ± 0.1 | 1.3 ± 0.4 |
| CCc1nc(N)nc(N)c1-c1ccc(Cl)cc1 [Pyr, pyrimethamine, reference compound] | – | – | – | – | 80 ± 10 | – | 109000 | 40000 | – | – | – | – |
| COc1cc(Cc2cnc(N)nc2N)cc(OC)c1OC [Trimethoprim, reference compound] | – | – | – | – | – | – | – | – | 6000 | 2300 | – | – |
